Measurements published in ChEMBL document CHEMBL2203282, “1,4-naphthoquinone cations as antiplasmodial agents: hydroxy-, acyloxy-, and alkoxy-substituted analogues” (ACS Med Chem Lett, 2012).
pIC50: −log10 of the molar value.

Tested on: Plasmodium falciparum
Test: Antiplasmodial activity against chloroquine-resistant Plasmodium falciparum W2 infected in human erythrocytes assessed as reduction in parasitemia after 48 hrs by flow cytometry analysis
Assay type: functional, organism-based
Conditions: W2, 48 h

## CCCCCCCCCCC1=C(C)C(=O)c2ccccc2C1=O
  pIC50: < 5.00

## CC(=O)OC1=C(CCCCC[P+](c2ccccc2)(c2ccccc2)c2ccccc2)C(=O)c2ccccc2C1=O
  pIC50: 5.72

## CCCCCCCCCCC1=C(OC(C)=O)C(=O)c2ccccc2C1=O
  pIC50: 6.41

## CCCCCCCCCCC1=C(O)C(=O)c2ccccc2C1=O
  pIC50: 6.47

## CC1=C(OC(=O)CCC[P+](c2ccccc2)(c2ccccc2)c2ccccc2)C(=O)c2ccccc2C1=O
  pIC50: 5.34

## CC1=C(OC(=O)CCCCCCCCCC[P+](c2ccccc2)(c2ccccc2)c2ccccc2)C(=O)c2ccccc2C1=O
  pIC50: 5.86

## CC1=C(OCC(=O)OCCC[P+](c2ccccc2)(c2ccccc2)c2ccccc2)C(=O)c2ccccc2C1=O
  pIC50: 5.91

## CC1=C(OCCCCCCCCCC[P+](c2ccccc2)(c2ccccc2)c2ccccc2)C(=O)c2ccccc2C1=O
  pIC50: 6.92

## CC1=C(OCCCCCC[P+](c2ccccc2)(c2ccccc2)c2ccccc2)C(=O)c2ccccc2C1=O
  pIC50: 7.37

## CC1=C(OCCC[P+](c2ccccc2)(c2ccccc2)c2ccccc2)C(=O)c2ccccc2C1=O
  pIC50: 7.38

## O=C1C=C(OCCC[P+](c2ccccc2)(c2ccccc2)c2ccccc2)C(=O)c2ccccc21
  pIC50: 7.40

## O=C1C=C(OCCCCCC[P+](c2ccccc2)(c2ccccc2)c2ccccc2)C(=O)c2ccccc21
  pIC50: 7.55

## O=C1C(Cc2ccc(Cl)cc2)=C(OCCCCCC[P+](c2ccccc2)(c2ccccc2)c2ccccc2)C(=O)c2ccccc21
  pIC50: 7.31

## O=C1C(Cc2ccccc2)=C(OCCCCCC[P+](c2ccccc2)(c2ccccc2)c2ccccc2)C(=O)c2ccccc21
  pIC50: 7.31

## O=C1C(OCCCCCC[P+](c2ccccc2)(c2ccccc2)c2ccccc2)=C(C2CCCCC2)C(=O)c2ccccc21
  pIC50: 7.32

## O=C1C(Cc2ccccc2)=C(OCCC[P+](c2ccccc2)(c2ccccc2)c2ccccc2)C(=O)c2ccccc21
  pIC50: 7.33

## O=C1C(OCCC[P+](c2ccccc2)(c2ccccc2)c2ccccc2)=C(C2CCCCC2)C(=O)c2ccccc21
  pIC50: 7.37

## COc1ccc(C2=C(OCCC[P+](c3ccccc3)(c3ccccc3)c3ccccc3)C(=O)c3ccccc3C2=O)cc1
  pIC50: 7.76

## CC1=C(OCCC[n+]2ccccc2)C(=O)c2ccccc2C1=O
  pIC50: 6.78

## CC1=C(OCCC[n+]2ccn(C)c2)C(=O)c2ccccc2C1=O
  pIC50: 6.78

## CC(=O)OC1=C(c2ccc(OCCCCCCCCCC[P+](c3ccccc3)(c3ccccc3)c3ccccc3)cc2)C(=O)c2ccccc2C1=O
  pIC50: 5.15

## O=C1C(O)=C(c2ccc(OCCC[P+](c3ccccc3)(c3ccccc3)c3ccccc3)cc2)C(=O)c2ccccc21
  pIC50: 5.17

## O=C1C(O)=C(c2ccc(OCCCCCCCCCC[P+](c3ccccc3)(c3ccccc3)c3ccccc3)cc2)C(=O)c2ccccc21
  pIC50: 5.18

## CC(=O)OC1=C(c2ccc(OCCCC[P+](c3ccccc3)(c3ccccc3)c3ccccc3)cc2)C(=O)c2ccccc2C1=O
  pIC50: 5.26

## O=C1C(O)=C(CCCCC[P+](c2ccccc2)(c2ccccc2)c2ccccc2)C(=O)c2ccccc21
  pIC50: 5.39

## CCCC[P+](CCCC)(CCCC)CCCCCCCCCCC1=C(O)C(=O)c2ccccc2C1=O
  pIC50: 5.41

## CC(=O)OC1=C(CCCCCCCCCC[P+](c2ccccc2)(c2ccccc2)c2ccccc2)C(=O)c2ccccc2C1=O
  pIC50: 5.44

## O=C1C(O)=C(CCCCCCCCCC[P+](Cc2ccccc2)(Cc2ccccc2)Cc2ccccc2)C(=O)c2ccccc21
  pIC50: 5.48

## O=C1C(O)=C(CCCCCCCCCC[P+](c2ccccc2)(c2ccccc2)c2ccccc2)C(=O)c2ccccc21
  pIC50: 5.66

## C[C@@H]1CC[C@H]2[C@@H](C)C(=O)O[C@@H]3O[C@@]4(C)CC[C@@H]1[C@]32OO4 [ARTEMISININ]
  pIC50: 7.74

## O=C1C(O)=C([C@H]2CC[C@H](c3ccc(Cl)cc3)CC2)C(=O)c2ccccc21 [ATOVAQUONE]
  pIC50: 9.30
